Earlier results as cited in US20110300245A1, “Topical, palatable, anti-inflammatory and analgesic for specific application to intraoral, gingival and extraoral areas correlated with, and related to, the trigeminal nerve and its nerve branches and plexus. To mitigate, attenuate or prevent migraine-type headache, cluster-type headache, …” (priority 2010, published 2011).
Where two headings read alike, the source gives them in different places.

How the values were obtained:
[1] = rheumatoid arthritis patients
[2] = in vivo
[3] = intravesical, 213 patients
[4] = test system: peripheral nerve C fibers; conditions: laboratory studies
[5] = for patients with symptoms controlled within 2 weeks: added orally to the sulfasalazine/prednisolone regimen, allopurinol 50 mg or DMSO 500 mg four times a day, p<0.01
[6] = not given; remark: listed apart in the source
[7] = not given; remark: listed apart in the source
[8] = not given; remark: listed apart in the source
[9] = not given; remark: listed apart in the source
cell proliferation = conditions: in vitro
[10] = given with sulfasalazine 2 gm daily, p<0.05

Question: What does the source list for `C[S+](C)[O-]` [DMSO, dimethyl sulfoxide]?
Answer: effects on joint pain, range of joint motion and grip strength [1]: analgesic and anti-inflammatory effects; edema in animals [2]: reduction of edema; systemic or local toxicity [3]: no systemic or local toxicity; symptomatic relief ([3]; majority of patients): Significant symptomatic relief; relief of pain in rheumatoid arthritis (27 patients with rheumatoid arthritis): all but four had some degree of relief of pain; pain relief (103 patients, topical application): pain relief of varying degrees in most patients; time to pain relief after application (DMSO 1.0 ml, five patients with acute supraspinatus tendon pain associated with calcification): ≤ 10 min; symptomatic relief (all six patients with acute calcified supraspinatus bursitis): Spectacular symptomatic relief; recovery with normal use of the shoulder (continued applications every four hours over the following 24 hour period): complete recovery; nerve conduction [4]: blocking peripheral nerve C fibers; patients with symptoms controlled within 2 weeks [5]: 84%; patients relapsed during 12 months of prophylactic treatment [5, 10]: 5%; patients showing improvement ([6]; acute patients): 80%; patients showing improvement ([6]; chronic patients): 60%; number of patients with normal ICP ([7]; after 6 days of treatment, ten patients): 7; ICP after 24 h ([7]; intravenous every 6 h, all ten patients, ICP 40-127 mm Hg): reduction of ICP; neurological outcome ([7]; severe closed-head injury patients, intravenous): improves neurological outcome

Question: With `CC(C(=O)O)c1cccc(C(=O)c2ccccc2)c1` (stereo not shown) [Ketoprofen] as the compound, how does the side effects ([8]; 30-day treatment phase) read?
Answer: Its side effects is “minimal”.

Question: What about the “average monthly headache burden score (intensity 0-10 x duration in hours)” value ([8]; 30-day treatment phase, gel once daily, 20 patients, 30-day baseline 454.8, p<0.001) of the same compound?
Answer: Its value is 86.5.

Question: What about the “analgesic and headache medication intake” value ([8]; treatment phase versus baseline) of the same compound?
Answer: The value was “significantly reduced”.

Question: Which results are given for `Oc1ncnc2[nH]ncc12` [allopurinol]?
Answer: patients with symptoms controlled within 2 weeks [5]: 84%; patients relapsed during 12 months of prophylactic treatment [5, 10]: 5%

Question: Which “patients relapsed during 12 months of prophylactic treatment” value ([5]; sulfasalazine 2 gm daily alone) does the source give for `O=C(O)c1cc(/N=N/c2ccc(S(=O)(=O)Nc3ccccn3)cc2)ccc1O` [sulfasoizine, sulfasalazine] here?
Answer: Its value is 25%.

Question: What does the source list for `CNS(=O)(=O)Cc1ccc2[nH]cc(CCN(C)C)c2c1` [sumatriptan]?
Answer: mean headache relief (0-10 scale) ([9]; 50 mg oral, at 1, 2, 4, and 24 hours after initiation of treatment): Significant mean headache relief; nausea relief ([9]; 50 mg oral, same post treatment time intervals (1, 2, 4, 24 hours)): Significant nausea relief; headache and nausea recurrence ([9]; at 24 hours): some headache and nausea recurrence

Question: With `O=C(O)C[C@H](O)C(=O)OC[C@H]1OC(O)[C@H](O)[C@@H](O)[C@@H]1O[C@H]1O[C@H](CO)[C@@H](O)[C@H](O)[C@H]1O` (stereo partly drawn) [veracylglucan B, alpha-D-Glcp-(1-->4)-6-O-(1-L-maloyl)-alpha,-beta,-D-Glcp] as the compound, how does the “anti-inflammatory activity and effect on cell proliferation” value (cell proliferation) read?
Answer: The value was “potent anti-inflammatory and anti-proliferative effects”.

Question: With `O=C(O)C[C@H](O)C(=O)OC[C@H]1O[C@H](O[C@H]2[C@H](O)[C@@H](O)[C@@H](O[C@H]3[C@H](O)[C@@H](O)[C@@H](O[C@H]4[C@H](O)[C@@H](O)[C@@H](O[C@H]5[C@H](O)[C@@H](O)C(O)O[C@@H]5COC(=O)[C@@H](O)CC(=O)O)O[C@@H]4COC(=O)[C@@H](O)CC(=O)O)O[C@@H]3COC(=O)[C@@H](O)CC(=O)O)O[C@@H]2COC(=O)[C@@H](O)CC(=O)O)[C@H](O)[C@@H](O)[C@@H]1O[C@H]1O[C@H](CO)[C@@H](O)[C@H](O)[C@H]1O` (stereo partly drawn) [veracylglucan C, alpha-D-Glcp-(1-->4)-tetra-[6-O-(1-L-maloyl)-alpha-D-Glcp-(1-->4)]-6-O-(1-L-maloyl)-alpha,-beta-D-Glcp] as the compound, how does the “anti-inflammatory activity and effect on cell proliferation” value (cell proliferation) read?
Answer: The value was “significant cell proliferative and anti-inflammatory activities”.
